Results as given in patent publication US20230210110A1, “METHOD FOR INDUCING ENVIRONMENTAL STRESS TOLERANCE IN PLANTS” (AJINOMOTO CO., INC., priority 2020, published 2023).

Key:
Type in all cases: in vivo, Arabidopsis thaliana
[1] = test system: RD29B and MAPKKK18; test: Effect of Lys derivatives and nitrogen-containing compounds on induction of environmental stress tolerance genes by ABA (activity level); settings: for Activity level: total of induction activities of RD29B and MAPKKK18 with 1 mM compound and 0.25 μM ABA, relative to ABA alone taken as 1, >1 enhanced, 1 no effect, <1 suppressed; for effect on the gene expression inducing activity of ABA: 1 mM compound with 0.25 μM ABA
Experimental: (§1) Four to six young Arabidopsis thaliana plants grown on a 50% concentration MS (Murashige-Skoog) agar medium were transferred to a 6-well plate containing a 50% concentration MS (Murashige-Skoog) liquid medium and pre-cultured for 16 hours, then added with a treatment solution containing each amino acid alone or a treatment solution containing a combination of each amino acid and ABA, and left for 6 hours. Then, RNA was then isolated from the plants with a nucleic acid purification kit (Promega, Maxwell (registered trademark) 16 LEV simplyRNA Tissue Kit). Then, cDNA was synthesized with a cDNA synthesis reagent for real-time PCR (Toyobo, ReverTra Ace (registered trademark) qPCR RT Master Mix).
GAPDH is a glyceraldehyde-3-phosphate dehydrogenase gene and was selected as an internal standard.
Lys or each Lys derivative is used for treatment at 1 mM and ABA at 0.25 μM.

[2] = test system: RD29A, RD29B, MAPKKK18, ABF3F and SLAC1 genes; test: Induction of expression of environmental stress tolerance (ABA-responsive) genes, real-time PCR, relative to GAPDH; settings: amino acid alone or combination with ABA, 6 hours, n=3
[3] = test system: RD29A, RD29B, MAPKKK18, ABF3F and SLAC1 genes; test: as above; settings: for activity of synergistically enhancing the effect of ABA: RD29B expression, amino acid in combination with ABA
Experimental: as §1
MAPKKK18 is a gene encoding a kinase (MAPKKK18, MITOGEN-ACTIVATED PROTEIN KINASE KINASE KINASE 18) that functions in the ABA signaling pathway of Arabidopsis thaliana (Zelicourt A. et al., Trends in Plant Science 21: (2016)). RD29A and RD29B are genes encoding hydrophilic proteins (RESPONSIVE TO DESICCATION 29A, RESPONSIVE TO DESICCATION 29B) that are responsive for ABA and environmental stress such as drought stress and salinity stress and considered to be involved in stress tolerance and senescence suppression (Yang S. D. et al., Plant Cell 6: 2155-2168 (2011)). ABF3 is a gene encoding a transcription factor (ABA-responsive element-binding protein) that regulates expression of ABA-responsive genes (Yoshida T. et al., Plant, cell and Environment 38: 35-49 (2015)). SLAC1 is a gene encoding an anion channel involved in stomatal closure (Yoshida et al., J Plant Res (2016) 129:39-49). GAPDH is a glyceraldehyde-3-phosphate dehydrogenase gene and was selected as an internal standard.
The expression levels of the genes were calculated as relative expression levels to the GAPDH gene. Twenty amino acids were divided into 10 each, and the gene expression inducing activity when combined with ABA was evaluated in two tests (n=2).
(§2) The expression levels of the respective genes were calculated as relative expression levels to the GAPDH gene in the same manner as in Example 1.
Separately, Arabidopsis thaliana was treated with a combination of 0.1 mM, 0.25 mM, 1 mM, 2.5 mM, 10 mM, or 25 mM of Lys and 0.25 μM of ABA in the same manner as in Example 1, and expression of MAPKKK18, RD29A, and RD29B genes after 6 hours of treatment was analyzed (n=3). The expression levels of the respective genes were calculated as relative expression levels to the GAPDH gene in the same manner as in Example 1. […]
as §2, §2

| Structure (SMILES) | Activity level [1] | further results |
| --- | --- | --- |
| O=C(NCCCCCNC(=O)c1ccccc1)c1ccccc1 [II-2] | > 1 |  |
| N[C@@H](Cc1c[nH]c2ccccc12)C(=O)O [Trp, tryptophan] |  | activity to induce expression of the environmental stress tolerance gene RD29B [2]: No activity; activity of synergistically enhancing the effect of ABA [3]: synergistically enhance the effect of ABA |
| CC(C)[C@H](N)C(=O)O [Val, valine] |  | activity of synergistically enhancing the effect of ABA [3]: synergistically enhance the effect of ABA; activity to induce expression of the environmental stress tolerance gene RD29B ([3]; amino acid alone or combination with ABA, 6 hours, n=3): No activity |
| O=C(NCCC[C@H](NC(=O)c1ccccc1)C(=O)O)c1ccccc1 [compound 6] | >1 |  |
| COC(=O)[C@@H](N)CCCCN [compound 7] | 1 | effect on the gene expression inducing activity of ABA [1]: no effect |
| CC(=O)NCCCC[C@H](N)C(=O)O [compound 8] | <1 |  |
| N[C@@H](CCCCNC(=O)c1ccccc1)C(=O)O [compound 9] | <1 |  |
| N[C@H](CCCCNC(=O)c1ccccc1)C(=O)O [compound 10] | <1 |  |
| N[C@@H](CCCCNC(=O)OCc1ccccc1)C(=O)O [compound 11] | 1 | effect on the gene expression inducing activity of ABA [1]: no effect |
| CC(C)(C)OC(=O)NCCCC[C@H](N)C(=O)O [compound 12] | >1 |  |
| N[C@H](CCCCNC(=O)OCc1ccccc1)C(=O)O [compound 13] | <1 |  |
| CN(C)CCCC[C@H](N)C(=O)O [compound 14] | >1 |  |
| CC(=O)N[C@@H](CCCCN)C(=O)O [compound 15] | <1 |  |
| NCCCC[C@H](NC(=O)/C=C/c1ccccc1)C(=O)O [compound 16] | <1 |  |
| NCCCC[C@H](NC(=O)OCc1ccccc1)C(=O)O [compound 17] | >1 |  |
| O=C(NCCC[C@H](NC(=O)OCc1ccccc1)C(=O)O)OCc1ccccc1 [compound 18] | >1 |  |
| CC(C)(C)OC(=O)NC[C@H](NC(=O)OCc1ccccc1)C(=O)O [compound 19] | >1 |  |
| CC(C)(C)OC(=O)NCC[C@H](NC(=O)OCc1ccccc1)C(=O)O [compound 20] | >1 |  |
| CCC(C)C(=O)C(=O)N[C@@H](CCCCNC(=N)N)C(=O)O (some centres unmarked) [compound 21] | <1 |  |
| COC(=O)[C@H](CCCCN)NC(=O)OCc1ccccc1 [compound 22] | >1 |  |
| NCCCC[C@H](NC(=O)OCc1ccccc1)C(=O)OCc1ccccc1 [compound 23] | <1 |  |
| COC(=O)[C@@H](N)CCCCNC(=O)OCc1ccccc1 [compound 24] | >1 |  |

| Structure (SMILES) | Activity level [1] | further results |
| --- | --- | --- |
| CC(C)(C)OC(=O)[C@@H](N)CCCCNC(=O)OCc1ccccc1 [compound 25] | 1 | effect on the gene expression inducing activity of ABA [1]: no effect |
| N[C@@H](CCCCNC(=O)OCc1ccccc1)C(=O)OCc1ccccc1 [compound 26] | <1 |  |
| COC(=O)[C@@H](N)CCCCNC(=O)OC(C)(C)C [compound 27] | >1 |  |
| CC(C)(C)OC(=O)NCCCC[C@H](N)C(=O)OC(C)(C)C [compound 28] | 1 | effect on the gene expression inducing activity of ABA [1]: no effect |
| COC(=O)[C@H](CCCCNC(=O)OC(C)(C)C)NC(=O)OCc1ccccc1 [compound 29] | >1 |  |
| O=C(NCCCC[C@H](NC(=O)c1ccccc1)C(=O)O)c1ccccc1 [compound 30] | <1 |  |
| CC(C)(C)OC(=O)N[C@@H](CCCCNC(=O)OCc1ccccc1)C(=O)O [compound 31] | >1 |  |
| CC(C)(C)OC(=O)NCCCC[C@H](NC(=O)OCc1ccccc1)C(=O)O [compound 32] | >1 |  |
| O=C(NCCCC[C@H](NC(=O)OCc1ccccc1)C(=O)O)OCc1ccccc1 [compound 33] | >1 |  |
| O=C(NCCCC[C@@H](NC(=O)OCc1ccccc1)C(=O)O)OCc1ccccc1 [compound 34] | >1 |  |
| O=C(N[C@@H](CCCCNC(=O)c1ccccc1)C(=O)O)OCc1ccccc1 [compound 35] | >1 |  |
| CC(C)(C)OC(=O)N[C@@H](CCCCNC(=O)OCc1cccc(Cl)c1)C(=O)O [compound 36] | >1 |  |
| CC(C)(C)OC(=O)NCCCC[C@H](NC(=O)OC(C)(C)C)C(=O)O [compound 37] | >1 |  |
| CC(C)(C)OC(=O)N[C@@H](CCCCNC(=O)OC(F)(F)F)C(=O)O [compound 38] | >1 |  |
| CC(C)(C)OC(=O)NCCCC[C@H](NC(=O)OCC1c2ccccc2-c2ccccc21)C(=O)O [compound 39] | <1 |  |
| CC(C)(C)OC(=O)N[C@@H](CCCCNC(=O)OCC1c2ccccc2-c2ccccc21)C(=O)O [compound 40] | >1 |  |
| O=C(NCCCC[C@H](NC(=O)OCc1ccccc1)C(=O)O)OCC1c2ccccc2-c2ccccc21 [compound 41] | <1 |  |
| O=C(NCCCC[C@H](NC(=O)OCC1c2ccccc2-c2ccccc21)C(=O)O)OCC1c2ccccc2-c2ccccc21 [compound 42] | >1 |  |
| Cc1ccc(C(NCCCC[C@H](NC(=O)OCC2c3ccccc3-c3ccccc32)C(=O)O)(c2ccccc2)c2ccccc2)cc1 [compound 43] | >1 |  |
| Cc1cccc(OCC(=O)NCCCC[C@H](NC(=O)COc2cccc(C)c2)C(=O)O)c1 [compound 44] | >1 |  |
| O=C(O)[C@H](CCCCN1C(=O)c2ccccc2C1=O)N1C(=O)c2ccccc2C1=O [compound 45] | >1 |  |
| Cn1c(=O)n(CCCC[C@H](NC(=O)c2c(Cl)cccc2Cl)C(=O)O)c(=O)c2ccccc21 [compound 46] | >1 |  |
